Laboratory results as given in PMC9807592, “New thioxothiazolidinyl-acetamides derivatives as potent urease inhibitors: design, synthesis, in vitro inhibition, and molecular dynamic simulation” (Scientific Reports, 2023).
≈ marks a conversion by molar mass, not a printed value. Where two headings read alike, the source gives them in different places.

Tests used:
urease [1] = target: T1, urease (Canavalia ensiformis, UniProt P07374); assay: biochemical; assay type: biochemical
Description: The assay was performed exactly according to our previous report. Briefly, 850 μL of urea and 15 μL urease (0.135 units dissolved in PBS, pH 7.4) were added to 100 μL of the synthesized derivatives at different concentrations. After 30 min, to 100 μL of the incubated solution, 500 μL solution I (5.0 g phenol and 25.0 mg sodium nitroprusside in 500 mL water) was added followed by the addition of 500 μL of solution II (2.5 g sodium hydroxide, 4.2 mL sodium hypochlorite, and 5% chlorine in 500 mL water) which was further incubated at 37 °C for 30 min. The absorbance was determined by measuring indophenols at 625 nm. Thiourea was used as the standard inhibitor for urease. The IC50 values for all synthesized compounds were calculated using GraphPad Prism software (GraphPad Software, Inc., San Diego, CA)[20].

[2] = system: clinical isolate of P. vulgaris; assay: Antimicrobial activity, broth microdilution (CLSI); assay type: cell-based; conditions: Proteus vulgaris
Description: (§1) Then, 100 μL of each dilution was transferred into the well of a microtiter plate and inoculated with 100 μL of cell suspension with a final density of 1–5 × 10^3 CFU/ml for yeasts and 1–1.5 × 10^6 cells/ml for bacteria. Plates were incubated at proper temperature overnight, and the minimum inhibitory concentration (MIC) of compounds was determined as the lowest concentration that prevented visible growth of tested microorganisms compared with the growth in the control wells (wells without tested compounds). […] All experiments were performed in duplicate[30],[31].

E. coli ATCC 25922 = assay: Antimicrobial activity, broth microdilution (CLSI); assay type: cell-based
Description: as §1

S. aureus ATCC 25923 = assay: Antimicrobial activity, broth microdilution (CLSI); assay type: cell-based; conditions: Staphylococcus aureus, ATCC25923
Description: as §1

C. albicans ATCC 10261 = assay: Antimicrobial activity, broth microdilution (CLSI); assay type: cell-based; conditions: Candida albicans, ATCC10261
Description: The antimicrobial activity of designed compounds was investigated using broth microdilution.
(§2) Briefly, twofold serial dilutions of the compounds were prepared in Mueller–Hinton Broth (MHB, HiMedia) for bacterial strains and RPMI-1640 (Sigma-Aldrich) for yeast strain (Ranging 1–512 µg/ml). Then, 100 μL of each dilution was transferred into the well of a microtiter plate and inoculated with 100 μL of cell suspension with a final density of 1–5 × 10^3 CFU/ml for yeasts and 1–1.5 × 10^6 cells/ml for bacteria. Plates were incubated at proper temperature overnight, and the minimum inhibitory concentration (MIC) of compounds was determined as the lowest concentration that prevented visible growth of tested microorganisms compared with the growth in the control wells (wells without tested compounds). Moreover, the minimum bactericidal/fungicidal concentration (MBC/MFC) of compounds was determined by transferring the 10 µl of clear wells into the agar media. Standard antibacterial and antifungal agents (Ciprofloxacin and Fluconazole) were evaluated. All experiments were performed in duplicate[30],[31].

[3] = In vitro cytotoxic evaluation (MTT assay); assay type: cell-based; conditions: human, MOLT-4 cells
Description: MOLT-4 (human acute lymphoblastic leukemia) cells were cultures in RPMI-1640 medium supplemented with 10% heat-inactivated fetal bovine serum. Cell viability was measured by the MTT assay. MOLT-4 cells were seeded into 96-well micro-culture plates. After 24 h, the culture medium was replaced with a medium containing different concentrations of newly synthesized derivatives. Control wells were supplemented with the same volume of growth medium not containing any drugs. Cells were then incubated at 37 °C for 72 h. At the end of the exposure time, the medium was removed and MTT solution of 0.5 mg/ml was added to each well. The plates were incubated at 37 °C for 4 h, after which DMSO was added to each well to solubilize the formed formazan crystals, and the absorbance of each well was read with a microplate reader at 570 nm.

[4] = system: urease-positive clinical isolate of P. vulgaris; assay: Urease inhibitory activity against P. vulgaris (Christensen's urea medium, 560 nm); assay type: cell-based; conditions: Proteus vulgaris; for IC50: 24 h at 37 °C, read at 560 nm
Description: To assess the inhibition of urease activity by synthetic compounds, Christensen’s urea.
medium containing urea and phenol red (pH indicator) was used for the preparation of two-fold serial dilutions of compounds in 96-well microtiter plates. Cell suspension of a urease-positive clinical isolate of P. vulgaris was prepared in a urea medium and added to each well. The turbidity of bacterial suspension was adjusted to 0.5 McFarland using a spectrophotometer, and also, the density of inoculated suspension was 1 × 10^6 CFU/ml. The concentrations of compounds were in the range of 1–512 µg/ml.
Inoculated media without adding any compound was considered a positive control, while uninoculated media were used as a negative control (blank). The anti-urease activity was assessed spectroscopically at 560 nm after 24 h incubation at 37 °C[14].

urease [5] = target: T1, urease; assay: Enzyme kinetic study of urease inhibition (Lineweaver–Burk); assay type: biochemical
Description: A Lineweaver–Burk plot was generated to identify the type of inhibition, and the Michaelis–Menten constant (Km) value was determined from the plot between the reciprocal of the substrate concentration (1/[S]) and reciprocal of enzyme rate (1/V) over various inhibitor concentrations. The experimental inhibitor constant (Ki) value was constructed by secondary plots of the inhibitor concentration [I] versus Km.

urease [6] = conditions: read-out: IC50, urease inhibition, cited from earlier work
[7] = system: methicillin-resistant Staphylococcus aureus (MRSA) isolates; assay: Antimicrobial activity against resistant isolates; assay type: cell-based
Description: Regarding the antibacterial activity of 6n and 6o against the standard strain of S. aureus, these derivatives were tested against methicillin-resistant Staphylococcus aureus (MRSA) isolates.
as §2

S. aureus biofilm = assay: Inhibition of biofilm formation (crystal violet assay); assay type: cell-based; conditions: Staphylococcus aureus, read-out: inhibition in the development of biofilm by S. aureus
Description: To evaluate the ability of the synthesized compounds 6a-i to prevent biofilm formation by standard species of S. aureus (ATCC25923) and MRSA strain, biofilms were pre-formed in 96 well plates, as previously described. Firstly, bacterial strains were inoculated into Tryptic Soy Broth (TSB) medium. The cells were cultivated on a shaker overnight for 180 r/min at 37 °C. Then, the suspension was centrifuged, and the cells were washed with PBS three times. Diluted cell suspension of strains was added into the wells with 1 × 10^6 final concentration. The plates were incubated for 4 h at 37 °C. After that, 100 μl of each of the dissolved compounds was added to a final concentration of […] in the wells. The plates were further incubated for 24 h at 37 °C. Following incubation, the crystal violet assay was performed to evaluate the inhibition of biofilm formation. For this purpose, the supernatant of the wells was aspirated gently, and the wells were washed three times with sterile distilled water. […] Assessment of biofilm formation was performed by transferring 100 μl of the destaining solution to a new plate and measuring the absorbance at 590 nm using a microplate reader. […] The mean absorbance (OD590 nm) of the samples was determined, and percentage inhibition was obtained using Eq. (1) as follows: 1 Percentageinhibition:ODblank-ODtest×100/ODblank

[8] = Escherichia coli, ATCC25922, read-out: MIC

T1 sequence (P07374 whole entry, looked up): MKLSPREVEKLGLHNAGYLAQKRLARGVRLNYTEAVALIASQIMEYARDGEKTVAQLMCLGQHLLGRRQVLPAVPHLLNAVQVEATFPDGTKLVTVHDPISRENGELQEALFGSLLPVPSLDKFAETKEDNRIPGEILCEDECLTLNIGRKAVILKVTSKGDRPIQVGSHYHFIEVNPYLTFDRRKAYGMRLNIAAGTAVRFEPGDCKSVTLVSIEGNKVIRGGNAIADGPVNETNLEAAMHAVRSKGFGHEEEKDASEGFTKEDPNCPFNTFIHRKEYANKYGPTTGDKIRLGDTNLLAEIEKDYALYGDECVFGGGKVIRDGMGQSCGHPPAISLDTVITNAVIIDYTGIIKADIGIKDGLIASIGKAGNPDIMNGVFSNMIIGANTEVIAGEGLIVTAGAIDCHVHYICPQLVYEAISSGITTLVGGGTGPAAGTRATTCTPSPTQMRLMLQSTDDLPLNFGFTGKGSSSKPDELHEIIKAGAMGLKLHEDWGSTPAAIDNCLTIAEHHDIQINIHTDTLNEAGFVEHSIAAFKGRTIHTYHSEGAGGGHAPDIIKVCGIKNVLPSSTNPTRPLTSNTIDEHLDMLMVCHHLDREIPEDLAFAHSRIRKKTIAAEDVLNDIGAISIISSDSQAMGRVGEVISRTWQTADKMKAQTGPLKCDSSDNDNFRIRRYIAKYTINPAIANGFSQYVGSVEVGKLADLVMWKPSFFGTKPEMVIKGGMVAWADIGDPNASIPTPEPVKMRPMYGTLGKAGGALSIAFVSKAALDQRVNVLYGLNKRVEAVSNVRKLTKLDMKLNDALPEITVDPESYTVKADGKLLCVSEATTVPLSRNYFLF

Compound	IC50 (urease [1]) [nM]	melting point [°C]	MIC [2] [µg/mL]	MIC (E. coli ATCC 25922; [8]) [µg/mL]	MIC (S. aureus ATCC 25923) [µg/mL]	MIC (C. albicans ATCC 10261) [µg/mL]	viability at 72 h, 100 µM [3] [%]	IC50 [4] [µg/mL]	Ki (urease [5]) [nM]	type of inhibition (urease [5]; Lineweaver–Burk plot, 6i at 0, 0.5, 1 and 2 µM)	IC50 (urease [6]; thiazolidine carboxylic acid lead) [nM]	IC50 (urease [6]; 4-thiazolidinone analogs) [nM]	inhibition at 512 µg/mL ([4]; at 512 µg/ml) [%]	MIC [7] [µg/mL]	MBC (S. aureus ATCC 25923) [µg/mL]	inhibition at 512 µg/mL (S. aureus biofilm) [%]	MIC (E. coli ATCC 25922) [µg/mL]	MBC (E. coli ATCC 25922; Escherichia coli, ATCC25922) [µg/mL]	IC50 (urease [6]; arylhydrazide Schiff base-thiazolidinones) [nM]
CCCCN1C(=O)[C@@H](CC(=O)NCc2ccccc2)SC1=S (racemic) [Compound 6i, N-benzyl-2-(3-butyl-4-oxo-2-thioxothiazolidin-5-yl)acetamide]	1470 ± 110	172 to 174	> 512	> 512	> 512	> 512	97.8 ± 2.5	17.8 ± 3.75 (≈ 52.8 µM)	1170	competitive									
O=C(O)[C@@H]1CSCN1 [A]											3030 ± 98								
COc1cc(/C=N\N=C2\NC(=O)CS2)c(OC)cc1Br [C]												1730 ± 1000							
CCCNC(=O)CC1SC(=S)N(Cc2ccccc2)C1=O (stereo not drawn) [Compound 6d, 2-(3-benzyl-4-oxo-2-thioxothiazolidin-5-yl)-N-propylacetamide]	1850 ± 660	165 to 167	> 512	> 512	> 512	> 512	95.5 ± 3.2	126 ± 8.65 (≈ 390 µM)											
CCCCNC(=O)CC1SC(=S)N(Cc2ccccc2)C1=O (stereo not drawn) [Compound 6e, 2-(3-benzyl-4-oxo-2-thioxothiazolidin-5-yl)-N-butylacetamide]	1640 ± 450	166 to 168	> 512	> 512	> 512	> 512	91.7 ± 2.8	15.3 ± 2.4 (≈ 45.4 µM)											
CC(C)CNC(=O)CC1SC(=S)N(Cc2ccccc2)C1=O (stereo not drawn) [Compound 6f, 2-(3-benzyl-4-oxo-2-thioxothiazolidin-5-yl)-N-isobutylacetamide]	1590 ± 470	164 to 166	> 512	> 512	> 512	> 512	91.9 ± 1.3	32.4 ± 5.26 (≈ 96.2 µM)											
C=CCNC(=O)CC1SC(=S)N(Cc2ccccc2)C1=O (stereo not drawn) [Compound 6g, N-allyl-2-(3-benzyl-4-oxo-2-thioxothiazolidin-5-yl)acetamide]	1610 ± 500		> 512	> 512	> 512	> 512	91.6 ± 3.7	61.7 ± 6.41 (≈ 192 µM)											
O=C(CC1SC(=S)N(Cc2ccccc2)C1=O)NC1CCCC1 (stereo not drawn) [Compound 6h, 2-(3-benzyl-4-oxo-2-thioxothiazolidin-5-yl)-N-cyclopentylacetamide]	1860 ± 290	167 to 169	> 512	> 512	> 512	> 512	95 ± 4.2	≥ 512					48.5						
CCCNC(=O)CC1SC(=S)N(CC(C)C)C1=O (stereo not drawn) [Compound 6n, 2-(3-isobutyl-4-oxo-2-thioxothiazolidin-5-yl)-N-propylacetamide]	2380 ± 490	160 to 162	> 512	> 512	128 (≈ 444 µM)	> 512	96.4 ± 2.2							128 (≈ 444 µM)	> 512	37			
C=CCNC(=O)CC1SC(=S)N(CC(C)C)C1=O (stereo not drawn) [Compound 6o, N-allyl-2-(3-isobutyl-4-oxo-2-thioxothiazolidin-5-yl)acetamide]	9270 ± 1650	164 to 166	> 512	512 (≈ 1790 µM)	128 (≈ 447 µM)	> 512	97.3 ± 3.5							512 (≈ 1790 µM)	256 (≈ 894 µM)	27	512 (≈ 1790 µM)	> 512	
N#Cc1ccc(C(=O)NN2C(=O)CSC2c2ccccc2O)cc1 (stereo not drawn) [D]																			4100 ± 20
